In patent EP2951180B1, “2,6,7,8 SUBSTITUTED PURINES AS HDM2 INHIBITORS” (Merck Sharp & Dohme Corp., priority 2013, dated 2014):
pIC50: −log10 of the molar value. Like-named read-outs stand apart in the source and are kept apart here.

Target: T1, HDM2 (Homo sapiens, UniProt Q00987)
T1 construct: Thioredoxin (N); made in house; host or cells: E. coli strain BL21(DE3)Rosetta
Test: HDM2 FRET assay (inhibition of binding of FITC labeled p53-pocket peptide to HDM2)
Details: for pIC50: read-out: FRET IC50
Summary of the method: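 Displacement of FITC-p53 peptide (3 nM) from His-tagged HDM2 (0.5 nM) is measured by Tb-to-fluorescein FRET in PBS, 0.01% BSA, 0.01% Tween-20. IC50 values derive from 10-point curves.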

[1] = 0.5 nM HDM2 (residues 17 to 125), 3nM peptide, two hour incubation at room temperature

T1 sequence (Q00987 17-125): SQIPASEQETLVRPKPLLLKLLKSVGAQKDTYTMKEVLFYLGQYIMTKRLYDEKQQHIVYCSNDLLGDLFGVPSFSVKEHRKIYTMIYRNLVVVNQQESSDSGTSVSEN

`C[C@@H](Nc1nc(-c2noc(=O)[nH]2)nc2nc(/C=C/c3ccccc3)n(C[C@H]3CC[C@H](C)CC3)c12)C1CCC1` [Example 21.20, 3-(6-{[(1R)-1-cyclobutylethyl]amino}-7-[(trans-4-methylcyclohexyl)methyl]-8-[(E)-2-phenylethenyl]-7H-purin-2-yl)-1,2,4-oxadiazol-5(4H)-one] showed a pIC50 (Table 21) of 8.72.

Work on `C[C@@H](Nc1nc(N2CCC(C(=O)O)C2)nc2nc(N3CCOC[C@H]3c3ccccc3)n(C[C@H]3CC[C@H](C)CC3)c12)C1CCC1` (stereo partly drawn) [Example 13.9, 1-(6-{[(1R)-1-cyclobutylethyl]amino}-7-[(trans-4-methylcyclohexyl)methyl]-8-[(3R)-3-phenylmorpholin-4-yl]-7H-purin-2-yl)pyrrolidine-3-carboxylic acid] yielded a pIC50 [1] of 6.70.

`C[C@H]1CC[C@H](Cn2c(C(O)C3CCOCC3)nc3nc(-c4n[nH]c(=O)o4)nc(-c4cccc(Cl)c4)c32)CC1` (mixture of isomers) [Example 23.1, 5-{6-(3-chlorophenyl)-8-[hydroxy(tetrahydro-2H-pyran-4-yl)methyl]-7-[(trans-4-methylcyclohexyl)methyl] -7H-purin-2-yl}-1,3,4-oxadiazol-2(3H)-one] showed a pIC50 (Table 23) of 7.17.

`C[C@@H](Nc1nc(C(=O)O)nc2nc(NC3CCCCC3)n(Cc3ccc(C(F)(F)F)cc3)c12)C1CCC1` [Example 9.12, 6-{[(1R)-1-cyclobutylethyl]amino}-8-(cyclohexylamino)-7-[4-(trifluoromethyl)benzyl]-7H-purine-2-carboxylic acid] gave a pIC50 (Table 9) of 8.12.

With `C[C@@H](Nc1nc(-c2noc(=O)[nH]2)nc2nc(N3CCCC3CS(C)(=O)=O)n(C[C@H]3CC[C@H](C)CC3)c12)C1CCC1` (stereo partly drawn) [Example 11.153, 3-(6-{[(1R)-1-cyclobutylethyl]amino}-7-[(trans-4-methylcyclohexyl)methyl]-8-{2-[(methylsulfonyl)methyl]pyrrolidin-1-yl}-7H-purin-2-yl)-1,2,4-oxadiazol-5(4H)-one] the pIC50 (Table 11) was 7.18.

Compound `C[C@@H](Nc1nc(C(=O)O)nc2nc(N3CCCC3c3cccc(F)c3)n(C[C@H]3CC[C@H](C)CC3)c12)C1CCC1` (stereo partly drawn) [Example 11.28, 6-{[(1R)-1-cyclobutylethyl]amino}-8-[2-(3-fluorophenyl)pyrrolidin-1-yl]-7-[(trans-4-methylcyclohexyl)methyl]-7H-purine-2-carboxylic acid] has a pIC50 (Table 11) of 8.82.

Work on `Cc1noc([C@@H]2COCCN2c2nc3nc(-c4noc(=O)[nH]4)nc(-c4cccc(Cl)c4)c3n2C[C@H]2CC[C@H](C)CC2)n1` [Example 16.116, 3-{6-(3-chlorophenyl)-7-[(trans-4-methylcyclohexyl)methyl]-8-[(3S)-3-(3-methyl-1,2,4-oxadiazol-5-yl)morpholin-4-yl]-7H-purin-2-yl}-1,2,4-oxadiazol-5(4H)-one] yielded a pIC50 [1] of 8.14.

With `C[C@@H](Nc1nc(C(=O)O)nc2nc(CN(C)C3CCCCC3)n(Cc3ccc(C(F)(F)F)cc3)c12)C1CCC1` [Example 10.14, (R)-6-((1-cyclobutylethyl)amino)-8-((cyclohexyl(methyl)amino)methyl)-7-(4-(trifluoromethyl)benzyl)-7H-purine-2-carboxylic acid] the pIC50 (Table 10) was 8.34.

Compound `Cc1cncc(-c2nc(-c3noc(=O)[nH]3)nc3nc(N4CCOC[C@H]4c4ccccc4)n(C[C@H]4CC[C@H](C)CC4)c23)c1` [Example 16.115, 3-{7-[(trans-4-methylcyclohexyl)methyl]-6-(5-methylpyridin-3-yl)-8-[(3R)-3-phenylmorpholin-4-yl]-7H-purin-2-yl}-1,2,4-oxadiazol-5(4H)-one] has a pIC50 [1] of 8.41.

Work on `C[C@@H](Nc1nc(-c2noc(=O)[nH]2)nc2nc(C3=C(c4ccccc4)CCCC3)n(C[C@H]3CC[C@H](C)CC3)c12)C1CCC1` [Example 21.16, 3-[6-{[(1R)-1-cyclobutylethyl]amino}-7-[(trans-4-methylcyclohexyl)methyl]-8-(2-phenylcyclohex-1-en-1-yl)-7H-purin-2-yl]-1,2,4-oxadiazol-5(4H)-one] yielded a pIC50 (Table 21) of 7.91.

`C[C@H]1CC[C@H](Cn2c(N3CCOC[C@H]3c3ccccc3)nc3nc(-c4noc(=O)[nH]4)nc(-c4cc(Cl)cnc4O)c32)CC1` [Example 16.162, 3-{6-(5-chloro-2-hydroxypyridin-3-yl)-7-[(trans-4-methylcyclohexyl)methyl]-8-[(3R)-3-phenylmorpholin-4-yl]-7H-purin-2-yl}-1,2,4-oxadiazol-5(4H)-one] was tested, and the pIC50 [1] was 9.07.

Compound `C[C@@H](Nc1nc(C(=O)O)nc2nc(N3CCCC4CCCCC43)n(C[C@H]3CC[C@H](C)CC3)c12)C1CCC1` (stereo partly drawn) [Example 11.23, 6-{[(1R)-1-cyclobutylethyl]amino}-7-[(trans-4-methylcyclohexyl)methyl]-8-(octahydroquinolin-1(2H)-yl)-7H-purine-2-carboxylic acid] has a pIC50 (Table 11) of 8.51.

With `COCC(c1ccccc1)c1nc2nc(-c3noc(=O)[nH]3)nc(N[C@H](C)C3CCC3)c2n1C[C@H]1CC[C@H](C)CC1` (single isomer, unassigned) [Example 21.41, 3-(6-{[(1R)-1-cyclobutylethyl]amino}-8-[(1R or S)-2-methoxy-1-phenylethyl]-7-[(trans-4-methylcyclohexyl)methyl]-7H-purin-2-yl)-1,2,4-oxadiazol-5(4H)-one] the pIC50 (Table 21) was 8.49.

With `C[C@H](CO)Nc1nc2nc(-c3noc(=O)[nH]3)nc(-c3cccc(Cl)c3)c2n1C[C@H]1CC[C@H](C)CC1` [Example 16.4, 3-(6-(3-chlorophenyl)-8-(((R)-1-hydroxypropan-2-yl)amino)-7-(((trans)-4-methylcyclohexyl)methyl)-7H-purin-2-yl)-1,2,4-oxadiazol-5(4H)-one] the pIC50 [1] was 7.53.

With `CCCN(c1nc2nc(C(=O)O)nc(N[C@H](C)C3CCC3)c2n1Cc1ccc(C(F)(F)F)cc1)[C@@H](C)c1ccccc1` [Example 9.49, 6-{[(1R)-1-cyclobutylethyl]amino}-8-{[(1S)-1-phenylethyl] (propyl)amino}-7-[4-(trifluoromethyl)benzyl]-7H-purine-2-carboxylic acid] the pIC50 (Table 9) was 7.64.

Work on `C[C@@H](Nc1nc(-c2noc(=O)[nH]2)nc2nc(-n3ccnc3)n(C[C@H]3CC[C@H](C)CC3)c12)C1CCC1` [Example 11.57, 3-(6-{[(1R)-1-cyclobutylethyl]amino}-8-(1H-imidazol-1-yl)-7-[(trans-4-methylcyclohexyl)methyl]-7H-purin-2-yl)-1,2,4-oxadiazol-5(4H)-one] yielded a pIC50 (Table 11) of 7.78.

Work on `Cc1cccc(-c2nc3nc(C(=O)O)nc(N(C)C(C)C(C)C)c3n2Cc2ccc(C(F)(F)F)cc2)c1` (stereo not shown) [Example 6.81, 6-[(1,2-dimethylpropyl)(methyl)amino]-8-(3-methylphenyl)-7-[4-(trifluoromethyl)benzyl]-7H-purine-2-carboxylic acid] yielded an inhibition at 1 µM (read-out: inh. at 1000 nM (FRET)) of 46%.

In the case of `C[C@@H]1OCCN(c2nc3nc(-c4noc(=O)[nH]4)nc(-c4cccc(Cl)c4)c3n2C[C@H]2CC[C@H](C)CC2)[C@@H]1c1ccccc1` [Example 16.126, 3-{6-(3-chlorophenyl)-7-[(trans-4-methylcyclohexyl)methyl]-8-[(2S,3R)-2-methyl-3-phenylmorpholin-4-yl]-7H-purin-2-yl}-1,2,4-oxadiazol-5(4H)-one], the pIC50 [1] was 7.07.

In the case of `C[C@@H](Nc1nc(C(=O)O)nc2nc(N3CCOC[C@@H]3c3ccccc3)n(Cc3ccc(C(F)(F)F)cc3)c12)C1CCC1` [Example 9.51, 6-{[(1R)-1-cyclobutylethyl]amino}-8-[(3S)-3-phenylmorpholin-4-yl]-7-[4-(trifluoromethyl)benzyl]-7H-purine-2-carboxylic acid], the pIC50 (Table 9) was 6.92.

For `Cc1cccc(-c2nc3nc(-c4nnn[nH]4)nc(N[C@H](C)C4CC4)c3n2Cc2ccc(C(F)(F)F)cc2)c1` [Example 12.26, N-[(1R)-1-cyclopropylethyl]-8-(3-methylphenyl)-2-(1H-tetrazol-5-yl)-7-[4-(trifluoromethyl)benzyl]-7H-purin-6-amine], the pIC50 [1] was 7.28.

`Cc1cccc(-c2nc3nc(C(=O)O)nc(N[C@H](CCC(=O)NCCO)C4CCC4)c3n2Cc2ccc(C(F)(F)F)cc2)c1` [Example 7.7, 6-({(1R)-1-cyclobutyl-4-[(2-hydroxyethyl)amino]-4-oxobutyl}amino)-8-(3-methylphenyl)-7-[4-(trifluoromethyl)benzyl]-7H-purine-2-carboxylic acid] was tested, and the pIC50 (Table 7) was 6.08.

Compound `CC1CCN(C)C(c2nc3nc(C(=O)O)nc(N[C@H](C)C4CCC4)c3n2C[C@H]2CC[C@H](C)CC2)C1` (stereo partly drawn) [Example 10.33, 6-(((R)-1-Cyclobutylethyl)amino)-8-(1,4-dimethylpiperidin-2-yl)-7-((trans-4-methylcyclohexyl)methyl)-7H-purine-2-carboxylic acid] has a pIC50 (Table 10) of 7.75.

With `C[C@H]1CC[C@H](Cn2c(N3CCOC[C@H]3c3ccccc3)nc3nc(-c4n[nH]c(=O)o4)nc(-c4cccc(Cl)c4)c32)CC1` [Example 16.21, 5-{6-(3-chlorophenyl)-7-[(trans-4-methylcyclohexyl)methyl]-8-[(3R)-3-phenylmorpholin-4-yl]-7H -purin-2-yl}-1,3,4-oxadiazol-2(3H)-one] the pIC50 [1] was 8.65.

With `CCOCC1CCCN1c1nc2nc(-c3noc(=O)[nH]3)nc(N[C@H](C)C3CCC3)c2n1C[C@H]1CC[C@H](C)CC1` (stereo partly drawn) [Example 11.32, 3-(6-{[(1R)-1-cyclobutylethyl]amino}-8-[2-(ethoxymethyl)pyrrolidin-1-yl]-7-[(trans-4-methylcyclohexyl)methyl]-7H-purin-2-yl)-1,2,4-oxadiazol-5(2H)-one] the pIC50 (Table 11) was 8.10.

`Cc1cccc(-c2nc3nc(C(=O)O)nc(NC4CCC(CO)CC4)c3n2Cc2ccc(C(F)(F)F)cc2)c1` (stereo not shown) [Example 6.40, 6-{[4-(hydroxymethyl)cyclohexyl]amino}-8-(3-methylphenyl)-7-[4-(trifluoromethyl)benzyl]-7H-purine-2-carboxylic acid] showed a pIC50 (Table 6) of 6.03.
